Results published in PubChem BioAssay AID248 (DTP/NCI, 2004).
Values joined by “and” are separate entries in the source; they are usually repeats but may differ in a detail not shown here. Identical values can stand only once. Toxic doses and inconclusive results are not listed. Cut-off read from the data, not from the text of the source: active = T/C of 150% or more; inactive = T/C below 125%.

Test system: L1210 leukemia ip in BDF1 mice, survival T/C
Assay: NCI In Vivo Anticancer Drug Screen. Data for tumor model L1210 Leukemia (intraperitoneal) in B6D2F1 (BDF1) mice
Conditions: endpoint: mean survival time, higher = longer survival
In short: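 Read-out is survival time, reported as the treated-group measurement over the vehicle-control measurement.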

[1] = dose: 100.0 mg/kg/injection, schedule: Q01DX009 (ip), vehicle: saline
[2] = dose: 100.0 mg/kg/injection, schedule: Q04DX003 (ip), vehicle: saline
[3] = dose: 200.0 mg/kg/injection, schedule: Q01DX009 (ip), vehicle: saline
[4] = dose: 200.0 mg/kg/injection, schedule: Q04DX003 (ip), vehicle: saline
[5] = dose: 400.0 mg/kg/injection, schedule: Q01DX009 (ip), vehicle: saline
[6] = dose: 400.0 mg/kg/injection, schedule: Q04DX003 (ip), vehicle: saline
[7] = dose: 100.0 mg/kg/injection, schedule: Q01DX009 (ip), vehicle: Klucel (hydroxypropylcellulose) (HPC)
[8] = dose: 100.0 mg/kg/injection, schedule: Q04DX003 (ip), vehicle: Klucel (hydroxypropylcellulose) (HPC)
[9] = dose: 200.0 mg/kg/injection, schedule: Q01DX009 (ip), vehicle: Klucel (hydroxypropylcellulose) (HPC)
[10] = dose: 200.0 mg/kg/injection, schedule: Q04DX003 (ip), vehicle: Klucel (hydroxypropylcellulose) (HPC)
[11] = dose: 400.0 mg/kg/injection, schedule: Q01DX009 (ip), vehicle: Klucel (hydroxypropylcellulose) (HPC)
[12] = dose: 400.0 mg/kg/injection, schedule: Q04DX003 (ip), vehicle: Klucel (hydroxypropylcellulose) (HPC)
[13] = dose: 100.0 mg/kg/injection, schedule: Q01DX009 (ip), vehicle: saline with Tween-80
[14] = dose: 200.0 mg/kg/injection, schedule: Q01DX009 (ip), vehicle: saline with Tween-80

Measured: T/C

O=S(=O)(/C(Br)=C\c1ccccc1)c1ccccc1
inactive: dose: 100.0 mg/kg/injection, schedule: Q01DX001 (ip), vehicle: saline 103 % of control | [1] 104 % of control | [2] 98 % of control | dose: 200.0 mg/kg/injection, schedule: Q01DX001 (ip), vehicle: saline 102 % of control | [3] 110 % of control | [4] 101 % of control | dose: 400.0 mg/kg/injection, schedule: Q01DX001 (ip), vehicle: saline 102 % of control | [5] 98 % of control | [6] 98 % of control

O=C(C=C(C(F)(F)Cl)C(F)(F)Cl)c1cccs1
inactive: dose: 5.0 mg/kg/injection, schedule: Q01DX009 (ip), vehicle: saline 95 % of control | dose: 10.0 mg/kg/injection, schedule: Q01DX009 (ip), vehicle: saline 88 % of control

c1ccc(COB(OCc2ccccc2)OCc2ccccc2)cc1
inactive: [1] 110 % of control | [2] 105 % of control | [3] 104 % of control | [4] 102 % of control | [5] 96 % of control | [6] 96 % of control

CC1(C)N=C(N)N=C(N)N1c1cccc(CCCCc2cccc(N)c2)c1
inactive: dose: 5.0 mg/kg/injection, schedule: Q01DX001 (ip), vehicle: saline 98 % of control | dose: 10.0 mg/kg/injection, schedule: Q01DX001 (ip), vehicle: saline 102 % of control | dose: 20.0 mg/kg/injection, schedule: Q01DX001 (ip), vehicle: saline 113 % of control

CCOc1ccc2nc(/C=C\c3cc4c5c(c3)CCCN5CCC4)ccc2c1
inactive: [7] 87 % of control | [8] 95 % of control | [9] 97 % of control | [10] 98 % of control | [11] 97 % of control | [12] 98 % of control

COc1cc(CC(C)N)cc(OC)c1OC (stereo not given)
inactive: dose: 50.0 mg/kg/injection, schedule: Q01DX009 (ip), vehicle: saline 110 % of control | [1] 108 % of control | [3] 103 % of control

COc1ccc(C(=O)CCC(=O)O)cc1
inactive: [13] 102 % of control | [14] 93 % of control | dose: 400.0 mg/kg/injection, schedule: Q01DX009 (ip), vehicle: saline with Tween-80 91 % of control

O=c1cnn(C2OC(CO)C(O)C2O)c(=S)[nH]1 (stereo not given)
inactive: dose: 100.0 mg/kg/injection, schedule: Q01DX005 (ip), vehicle: saline 113 % of control | [1] 124 % of control | dose: 200.0 mg/kg/injection, schedule: Q01DX005 (ip), vehicle: saline 108 % of control | [3] 123 % of control | [5] 117 % of control

O=C(Nc1cccc(C(F)(F)F)c1)c1cccc(C(=O)Nc2cccc(C(F)(F)F)c2)c1
inactive: dose: 12.5 mg/kg/injection, schedule: Q04DX003 (ip), vehicle: saline with Tween-80 96 % of control | dose: 25.0 mg/kg/injection, schedule: Q04DX003 (ip), vehicle: saline with Tween-80 91 % of control | dose: 50.0 mg/kg/injection, schedule: Q04DX003 (ip), vehicle: saline with Tween-80 90 % of control

CC(=O)Nc1cc(C)ccc1C
inactive: dose: 50.0 mg/kg/injection, schedule: Q01DX001 (ip), vehicle: Klucel (hydroxypropylcellulose) (HPC) 101 % of control | dose: 100.0 mg/kg/injection, schedule: Q01DX001 (ip), vehicle: Klucel (hydroxypropylcellulose) (HPC) 91 % of control and 101 % of control | dose: 200.0 mg/kg/injection, schedule: Q01DX001 (ip), vehicle: Klucel (hydroxypropylcellulose) (HPC) 94 % of control and 104 % of control | dose: 400.0 mg/kg/injection, schedule: Q01DX001 (ip), vehicle: Klucel (hydroxypropylcellulose) (HPC) 94 % of control

C[N+]1=COCC1(C)C
inactive: [1] 104 % of control | [2] 99 % of control | [3] 101 % of control | [4] 94 % of control | [5] 115 % of control | [6] 97 % of control

CC(=O)Nn1cnc2ccccc2c1=O
inactive: dose: 50.0 mg/kg/injection, schedule: Q01DX009 (ip), vehicle: Klucel (hydroxypropylcellulose) (HPC) 98 % of control | [7] 98 % of control | [9] 98 % of control

CC(=O)OC(c1ccnc2ccccc12)C1CC2CCN1CC2 (stereo not given)
inactive: dose: 50.0 mg/kg/injection, schedule: Q01DX001 (ip), vehicle: carboxymethylcellulose (CMC) 97 % of control | dose: 100.0 mg/kg/injection, schedule: Q01DX001 (ip), vehicle: carboxymethylcellulose (CMC) 97 % of control | dose: 200.0 mg/kg/injection, schedule: Q01DX001 (ip), vehicle: carboxymethylcellulose (CMC) 95 % of control

O=C(N/N=C/c1ccccc1)c1ccc(Cl)cc1
inactive: [8] 97 % of control | [10] 100 % of control | [12] 90 % of control

Cc1cccc(NC(=O)C2CCC(C)(C(=O)O)C2(C)C)c1 (stereo not given)
inactive: dose: 50.0 mg/kg/injection, schedule: Q01DX009 (ip), vehicle: saline with Tween-80 101 % of control | [13] 101 % of control | [14] 96 % of control

NC(N)=NCCCC(NC(=O)OCc1ccccc1)C(=O)O (stereo not given)
inactive: [7] 106 % of control and 94 % of control | [8] 94 % of control and 97 % of control | [9] 109 % of control and 91 % of control | [10] 86 % of control and 99 % of control | [11] 97 % of control and 87 % of control | [12] 92 % of control

CN(C)C(=S)N1C(=O)C2C3CCC(O3)C2C1=O (stereo not given)
inactive: dose: 3.13 mg/kg/injection, schedule: Q01DX009 (ip), vehicle: saline with Tween-80 102 % of control | dose: 6.25 mg/kg/injection, schedule: Q01DX009 (ip), vehicle: saline with Tween-80 98 % of control | dose: 6.25 mg/kg/injection, schedule: Q04DX002 (ip), vehicle: saline with Tween-80 106 % of control | dose: 12.5 mg/kg/injection, schedule: Q04DX002 (ip), vehicle: saline with Tween-80 87 % of control

O=C(O)c1ccccc1Br
inactive: dose: 100.0 mg/kg/injection, schedule: Q04DX002 (ip), vehicle: saline with Tween-80 96 % of control | dose: 200.0 mg/kg/injection, schedule: Q04DX002 (ip), vehicle: saline with Tween-80 93 % of control

N=C(N)SCCC(=O)O
inactive: [1] 100 % of control | [2] 90 % of control | [3] 110 % of control | [4] 96 % of control | [5] 115 % of control | [6] 95 % of control
